Common to all, as to assay type: in vivo
The test system of assay [1] is wild poinsettia (Euphorbia heterophylla). As to the kind of experiment: General postemergence herbicidal activity, EPHHL. Conditions: Euphorbia heterophylla, post-emergence, 336 h, postemergence spray, visual score after 14 days, 0 = no injury, 100 = complete kill, read-out: Post-emergent Weed Control EPHHL; for pest or weed control at 140 g/ha: 140 g ai/ha; for pest or weed control at 280 g/ha: 280 g ai/ha. As to the method: (§1) Seeds or nutlets of the desired test plant species were planted in Sun Gro MetroMix® 306 planting mixture, which typically has a pH of 6.0 to 6.8 and an organic matter content of about 30 percent, in plastic pots with a surface area of 103 square centimeters. When required to ensure good germination and healthy plants, a fungicide treatment and/or other chemical or physical treatment was applied. The plants were grown for 7-21 days in a greenhouse with an approximate 15 hour photoperiod which was maintained at about 23-29° C. during the day and 22-28° C. during the night. Nutrients and water were added on a regular basis and supplemental lighting was provided with overhead metal halide 1000-Watt lamps as necessary. The plants were employed for testing when they reached the first or second true leaf stage.
(§2) A weighed amount, determined by the highest rate to be tested, of each test compound was placed in a 25 mL glass vial and was dissolved in 4 mL of a 97:3 v/v (volume/volume) mixture of acetone and dimethyl sulfoxide (DMSO) to obtain concentrated stock solutions. […] The concentrated stock solutions obtained were diluted with 20 mL of an aqueous mixture containing acetone, water, isopropyl alcohol, DMSO, Atplus 411F crop oil concentrate, and Triton® X-155 surfactant in a 48.5:39:10:1.5:1.0:0.02 v/v ratio to obtain spray solutions containing the highest application rates. Additional application rates were obtained by serial dilution of 12 mL of the high rate solution into a solution containing 2 mL of 97:3 v/v (volume/volume) mixture of acetone and dimethyl sulfoxide (DMSO) and 10 mL of an aqueous mixture containing acetone, water, isopropyl alcohol, DMSO, Atplus 411F crop oil concentrate, and Triton X-155 surfactant in a 48.5:39:10:1.5:1.0:0.02 v/v ratio to obtain 1/2X, 1/4X, 1/8X and 1/16X rates of the high rate. Compound requirements are based upon a 12 mL application volume at a rate of 187 L/ha. Formulated compounds were applied to the plant material with an overhead Mandel track sprayer equipped with a 8002E nozzles calibrated to deliver 187 L/ha over an application area of 0.503 square meters at a spray height of 18 inches (43 cm) above the average plant canopy height. Control plants were sprayed in the same manner with the solvent blank.
(§3) The treated plants and control plants were placed in a greenhouse as described above and watered by sub-irrigation to prevent wash-off of the test compounds. After 14 days, the condition of the test plants as compared with that of the untreated plants was determined visually and scored on a scale of 0 to 100 percent where 0 corresponds to no injury and 100 corresponds to complete kill.

Assay [2] relates to velvetleaf (Abutilon theophrasti). Put plainly: General postemergence herbicidal activity, ABUTH. Conditions: Abutilon theophrasti, post-emergence, 336 h, postemergence spray, visual score after 14 days, 0 = no injury, 100 = complete kill, read-out: Post-emergent Weed Control ABUTH; for pest or weed control at 140 g/ha: 140 g ai/ha; for pest or weed control at 280 g/ha: 280 g ai/ha. As to the method:
as §1, §2, §3

The next assay relates to rice (Oryza sativa). As to the kind of experiment: General postemergence herbicidal activity, ORYSA. Conditions: Oryza sativa, post-emergence, 336 h, postemergence spray, visual score after 14 days, 0 = no injury, 100 = complete kill, read-out: Post-emergent Weed Control ORYSA; for plant injury at 140 g/ha: 140 g ai/ha; for plant injury at 280 g/ha: 280 g ai/ha. As to the method: as §1, §2, §3

Assay [3] has as its system lambsquarter (Chenopodium album). As to the kind of experiment: General postemergence herbicidal activity, CHEAL. Conditions: Chenopodium album, post-emergence, 336 h, postemergence spray, visual score after 14 days, 0 = no injury, 100 = complete kill, read-out: Post-emergent Weed Control CHEAL; for pest or weed control at 140 g/ha: 140 g ai/ha; for pest or weed control at 280 g/ha: 280 g ai/ha. As for the experimental part:
as §1, §2, §3

The subject of assay [4] is barnyardgrass (Echinochloa crus-galli). Put plainly: General postemergence herbicidal activity, ECHCG. Conditions: Echinochloa crus-galli, post-emergence, 336 h, postemergence spray, visual score after 14 days, 0 = no injury, 100 = complete kill, read-out: Post-emergent Weed Control ECHCG; for pest or weed control at 140 g/ha: 140 g ai/ha; for pest or weed control at 280 g/ha: 280 g ai/ha. As to the method:
as §1, §2, §3

SMILES strings stand for the structures.

On to `C/C=C/c1c(N)nc(-c2ccc(Cl)c(OC)c2F)nc1C(=O)OC` [Compound 22, 6-Amino-2-(4-chloro-2-fluoro-3-methoxyphenyl)-5-((E)-propenyl)pyrimidine-4-carboxylic acid methyl ester], for which the pest or weed control at 70 g/ha in assay [1] (70 g ai/ha) came to 100%; in assay [2] (70 g ai/ha) it was 85%; in assay [3] (70 g ai/ha), 95%; in assay [4] (70 g ai/ha), 95%. The plant injury at 70 g/ha in the assay on rice (Oryza sativa) (70 g ai/ha) turned out to be 0%.

For the compound `C#Cc1c(N)nc(-c2ccc(Cl)c(OC)c2F)nc1C(=O)OC` [Compound 24, 6-Amino-2-(4-chloro-2-fluoro-3-methoxyphenyl)-5-ethynyl-pyrimidine-4-carboxylic acid methyl ester], the pest or weed control at 140 g/ha in assay [1] was determined as 85%; in assay [2], 80%; in assay [3] it was 85%; in assay [4], 70%. In the assay on rice (Oryza sativa), the plant injury at 140 g/ha is 0%.

As for `COC(=O)c1nc(-c2ccc(Cl)cc2)c(F)c(N)c1C` [Compound 25, 4-Amino-6-(4-chlorophenyl)-5-fluoro-3-methylpyridine-2-carboxylic acid methyl ester], the pest or weed control at 280 g/ha amounted to 100% in assay [1], 70% in assay [2], 100% in assay [3] and 0% in assay [4]. The plant injury at 280 g/ha in the assay on rice (Oryza sativa) came to 0%.

Turning to `C=Cc1c(C(=O)OC)nc(-c2ccc(Cl)cc2)c(F)c1N` [Compound 26, 4-Amino-6-(4-chlorophenyl)-5-fluoro-3-vinylpyridine-2-carboxylic acid methyl ester], the pest or weed control at 140 g/ha in assay [1] amounted to 90%; in assay [2] it was 100%; in assay [3], 100%; in assay [4], 70%. Besides, the plant injury at 140 g/ha with rice (Oryza sativa) was 0%.

For `COC(=O)c1nc(-c2ccc(Cl)c(OC)c2F)cc(N)c1C` [Compound 27, 4-Amino-6-(4-chloro-2-fluoro-3-methoxyphenyl)-3-methyl-pyridine-2-carboxylic acid methyl ester], the pest or weed control at 280 g/ha worked out at 100% in assay [1], 80% in assay [2], 30% in assay [3] and 0% in assay [4]. Further, the plant injury at 280 g/ha in the assay with rice (Oryza sativa) turned out to be 0%.

`C=Cc1c(N)cc(-c2ccc(Cl)cc2F)nc1C(=O)OC` [Compound 29, 4-Amino-6-(4-chloro-2-fluorophenyl)-3-vinylpyridine-2-carboxylic acid methyl ester]: the pest or weed control at 280 g/ha in assay [1] worked out at 75%; in assay [2], 85%; in assay [3] it was 85%; in assay [4], 0%. In the assay on rice (Oryza sativa), the plant injury at 280 g/ha came out at 10%.

Turning to `C=C(F)c1c(C(=O)OC)nc(-c2ccc(Cl)cc2)c(F)c1N` [Compound 30, 4-Amino-6-(4-chlorophenyl)-5-fluoro-3-(1-fluorovinyl)pyridine-2-carboxylic acid methyl ester], the pest or weed control at 140 g/ha in assay [1] turned out to be 90%; in assay [2] it was 100%; in assay [3], 100%; in assay [4], 0%. For the same compound, the plant injury at 140 g/ha in the assay on rice (Oryza sativa) is 0%.

As for `C#Cc1c(N)cc(-c2ccc(Cl)c(OC)c2F)nc1C(=O)OC` [Compound 31, 4-Amino-6-(4-chloro-2-fluoro-3-methoxyphenyl)-3-ethynyl-pyridine-2-carboxylic acid methyl ester], the pest or weed control at 140 g/ha worked out at 100% in assay [1], 95% in assay [2], 95% in assay [3] and 80% in assay [4]. For the same compound, the plant injury at 140 g/ha in the assay with rice (Oryza sativa) was 0%.

`COC(=O)c1nc(-c2ccc(Cl)c(OC)c2F)nc(N)c1C(C)=O` [Compound 32, 5-Acetyl-6-amino-2-(4-chloro-2-fluoro-3-methoxyphenyl)-pyrimidine-4-carboxylic acid methyl ester]: the pest or weed control at 280 g/ha in assay [1] was 100%; in assay [2], 70%; in assay [3] it was 70%; in assay [4] it was 0%. Also, the plant injury at 280 g/ha with rice (Oryza sativa) was determined as 0%.

In the case of `COC(=O)c1nc(-c2ccc(Cl)c(OC)c2F)nc(N)c1C=O` [Compound 33, 6-Amino-2-(4-chloro-2-fluoro-3-methoxyphenyl)-5-formyl-pyrimidine-4-carboxylic acid methyl ester], the pest or weed control at 229 g/ha in assay [1] (229 g ai/ha) was 100%; in assay [2] (229 g ai/ha), 80%; in assay [3] (229 g ai/ha), 50%; in assay [4] (229 g ai/ha) it was 0%. In addition, the plant injury at 229 g/ha in the assay with rice (Oryza sativa) (229 g ai/ha) was found to be 0%.

On to `COC(=O)c1nc(-c2ccc(Cl)c(OC)c2F)cc(N)c1C=O` [Compound 34, 4-Amino-6-(4-chloro-2-fluoro-3-methoxyphenyl)-3-formylpyridine-2-carboxylic acid methyl ester], for which the pest or weed control at 280 g/ha in assay [1] is 95%; in assay [2], 100%; in assay [3], 90%; in assay [4], 95%. Also, in the assay on rice (Oryza sativa), the plant injury at 280 g/ha stood at 0%.

As to `COC(=O)c1nc(-c2ccc(Cl)c(OC)c2F)nc(N)c1C(F)F` [Compound 35, 6-Amino-2-(4-chloro-2-fluoro-3-methoxy-phenyl)-5-difluoromethylpyrimidine-4-carboxylic acid methyl ester], the pest or weed control at 280 g/ha came to 90% in assay [1], 75% in assay [2], 85% in assay [3] and 0% in assay [4]. For the same compound, the plant injury at 280 g/ha in the assay on rice (Oryza sativa) was 0%.

The record behind these values is patent publication US8658791B2, “2-substituted-6-amino-5-alkyl, alkenyl or alkynyl-4-pyrimidinecarboxylic acids and 6-substituted-4-amino-3-alkyl, alkenyl or alkynyl picolinic acids and their use as herbicides” (Dow AgroSciences, LLC, priority 2007, dated 2014).
